Experiments:
[1] = biological target: T1, Islet amyloid precursor polypeptide, IAPP (Homo sapiens, UniProt P10997); assay: In vitro assembly assay (thioflavin T fluorescence, with or without air-water interface), IAPP; format: biochemical; settings: ratio of IC50 with air-water interface (+AWI) to IC50 without (−AWI), IAPP at 4 μM; for Ratio IAPP IC50 (μm) +AWI/−AWI elongation: elongation rate
T1 construct: Purified synthetic peptides corresponding to IAPP (Bachem, Weil am Rhein, Germany); purchased Bachem, Weil am Rhein, Germany; host or cells: synthetic peptide
T1 sequence (P10997 34-70 limits assumed): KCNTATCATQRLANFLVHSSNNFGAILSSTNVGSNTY
Protocol: (§1) The assay is based upon the altered fluorescent properties of the dye thioflavin T when it is intercalated into stacked beta-strand structures, which includes amyloid fibrils. The assay is carried out in multi-well plates in which the air-water interface (AWI) can be independently occluded at any time in the assay by the insertion in any well of a hydrophilic poly-methyl-methacrylate cylinder (Perspex). The cylinder consists of a rod of 6.6 mm in diameter and 6 mm in height with a hemispherical tip. This provides a close fit for the circular cross-section of the well, minimising residual air-water interface, and the hemispherical contour on the inserted end serves to ensure that no air bubbles are trapped on insertion.
(§2) The assay has a final volume of 100 μl and contains a buffered isotonic solution (Phosphate Buffered Saline pH 7.4), 32 μM Thioflavin T (ThT), an amyloidogenic precursor peptide (Islet amyloid precursor polypeptide, IAPP at 4 μM, or Abeta1-40 at 12 μM, final concentration) and added compounds at indicated concentrations (dissolved in dimethyl sulphoxide, DMSO) or DMSO alone. Purified synthetic peptides corresponding to IAPP (Bachem, Weil am Rhein, Germany) and Aβ1-40 (EZBiolab, Carmel, Ind., USA) were dissolved in DMSO, sonicated, and centrifuged for 1 hour at 15,000 g and 4° C. before use (to remove any pre-aggregated species).
(§3) The ThT fluorescence signal was measured at 1 minute intervals (excitation 450 nm, emission 480 nm) in a 96-well plate (black wall, clear bottom; Greiner Bio-One, Stonehouse, Gloucestershire, UK) without shaking at 37° C. on a Polarstar plate reader (BMG Labtech, Aylesbury, Buckinghamshire, UK).
(§4) Any compound or physical device (e.g., Perspex cylinder) used was introduced at the same time in test (containing IAPP) and control wells (buffer and ThT without IAPP). Control values (with or without compounds or physical device) were subtracted from test values. At least 3 independent assays, with every assay done in duplicate wells, were performed and analyzed with the 2-sample t test.
(§5) A more detailed description of the IAPP and Aβ thioflavin/cylinder assay is given in Jean et al (2012) Biophysical Journal 102 1154-11.
(§6) The kinetics parameters were calculated from the ThT data as follows; the elongation rate was calculated from the slope at the inflection point of the sigmoidal curve; the plateau height was calculated by averaging the highest curve values (minimum of five values) attained at the end of the experiment; and the lag phase was calculated from the intercept on the time axis of the line formed tangent to the inflection point. At least three independent assays were performed, with every assay performed in duplicate wells. Statistical analysis was performed with the two-sample t-test. Details of the method of calculation of lag phase, elongation rate and plateau height are described in Trigg et al (2013) Biochemical Journal 456 67-80.

Abeta1-40 = biological target: T2, Abeta1-40 (Homo sapiens, UniProt P05067); assay: In vitro assembly assay (thioflavin T fluorescence), screen against Amyloid-beta (Aβ) peptides; format: biochemical; settings: Abeta1-40 at 12 μM
T2 construct: Abeta1-40 at 12 μM, final concentration; purchased EZBiolab, Carmel, Ind., USA; host or cells: synthetic peptide
Protocol: as §1, §2, §3, §4, §5, §6

C. elegans = assay: in vivo C. elegans model

T2 sequence (P05067 672-711 limits assumed): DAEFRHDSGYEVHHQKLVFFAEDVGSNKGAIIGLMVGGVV

Row | SMILES | Ratio IAPP IC50 (μm) +AWI/−AWI elongation [1] | Ratio IAPP IC50 (μm) +AWI/−AWI Lag phase [1] | Active against Aβ (Abeta1-40) | activity in an in vivo C. elegans model (C. elegans)
1 | Cc1cc(C)c2ccc(/C=C/c3cccnc3Cl)nc2c1O [Compound 311] | 1 | 4 |  | 
2 | COc1cc(/C=C/c2ccc3c(C)cc(C)c(O)c3n2)ccc1O [Compound 238] | 4 | 32 |  | 
3 | Cc1cc(C)c2ccc(/C=C/c3ccccc3N)nc2c1O [Compound 131] | 4 | 8 |  | 
4 | Cc1cc(C)c2ccc(/C=C/c3cccc(O)c3)nc2c1O [Compound 227] | 31 | 32 | ✓ (rate) | 
5 | Cc1cc(C)c2ccc(/C=C/c3cccc([N+](=O)[O-])c3)nc2c1O [Compound 234] | 21 | 21 |  | 
6 | Cc1cc(C)c2ccc(/C=C/C3CCCCC3)nc2c1O [Compound 245] | 32 | 32 | ✓ | 
7 | Cc1cc(C)c2ccc(/C=C/c3ccc(N4CCNCC4)nc3)nc2c1O [Compound 324] | 4 | 21 |  | 
8 | Cc1cc(C)c2ccc(/C=C/c3ccc4c(c3)OCO4)nc2c1O [Compound 241] | 11 | 3 | No | showed activity
9 | Cc1ccc(/C=C/c2ccc3c(C)cc(C)c(O)c3n2)cn1 [Compound 322] | 1 | 4 |  | 
10 | COc1ccc(/C=C/c2ccc3c(C)cc(C)c(O)c3n2)cn1 [Compound 312] | 1 | 2 |  | 
11 | Cc1cc(C)c2ccc(/C=C/c3ccc(OC(F)(F)F)cc3)nc2c1O [Compound 239] | 32 | 11 |  | 
12 | Cc1cc(C)c2ccc(/C=C/c3cccnc3N3CCNCC3)nc2c1O [Compound 325] | 5 | 1 |  | 
13 | Cc1cc(C)c2ccc(/C=C/c3ccc(O)c(O)c3)nc2c1O [Compound 221] | 16 | 32 |  | 
14 | Cc1cc(C)c2ccc(/C=C/c3ccccc3O)nc2c1O [Compound 214] | 3 | 32 | ✓ (rate) | showed activity
15 | Cc1cc(C)c2ccc(/C=C/c3ccccc3)nc2c1O [Compound 225] | 4 | 3 |  | 
16 | Cc1cc(C)c2ccc(/C=C/c3cccnc3N)nc2c1O [Compound 321] | >1 | 3 |  | 
17 | Cc1cc(C)c2ccc(/C=C/c3ccccc3[N+](=O)[O-])nc2c1O [Compound 222] | 3 | 11 |  | 
18 | Cc1cc(C)c2ccc(/C=C/c3ccc(N4CCOCC4)nc3)nc2c1O [Compound 323] | 2.5 | 11 |  | 
19 | Cc1cc(C)c2ccc(/C=C/c3cc(C(=O)O)ccc3O)nc2c1O [Compound 236] | 11 | 8 | ✓ | showed activity
20 | Cc1cc(C)c2ccc(/C=C/c3ccc(Br)cc3)nc2c1O [Compound 252] | 3 | 1 |  | 
21 | Cc1cc(C)c2ccc(/C=C/c3cccc(C#N)c3)nc2c1O [Compound 251] | 21 | 21 | ✓ | showed activity
22 | Cc1cc(C)c2ccc(/C=C/c3ccc(Br)o3)nc2c1O [Compound 226] | 3 | 1 |  | 
23 | Cc1cc(C)c2ccc(/C=C/c3cccnc3C)nc2c1O [Compound 326] | 1 | 1 |  | 
24 | Cc1cc(C)c2ccc(/C=C/c3ccccc3C#N)nc2c1O [Compound 229] | 32 | 32 | ✓ (rate) | 
25 | Cc1cc(C)c2ccc(/C=C/c3cccnc3)nc2c1O [Compound 249] | 12 | 32 | ✓ | showed activity

From patent US9822078B2, “Quinoline compounds” (Oxford University Innovation Limited, priority 2014, dated 2017)
